Results published in patent US8993626B2, “Methods of treatment using sterculic acid” (The United States of America, as represented by the …, priority 2010, dated 2015).

How the values were obtained:
[1] = tested on: bFGF-induced angiogenesis; assay: Chick chorioallantonic membrane (CAM) assay; type: in vivo; settings: for decrease in blood vessels induced by bFGF: bFGF 5 ng/ml, 72 h
Protocol: Results shown are reported as the reduction in angiogenic stimulation (vessels counted) compared to untreated controls. A, bFGF (5 ng/ml); B, bFGF (5 ng/ml)+5 μl DMSO; C, bFGF (5 ng/ml)+5 μl DMSO containing 1 μg/ml sterculic acid; D, bFGF (5 ng/ml)+5 μl DMSO containing 10 μg/ml sterculic acid.
Fertilized chick embryos, 9-day old, were maintained in a 48 place table top egg incubator at 37° C. in a specific humidity of 60%. After swabbing the egg shell with 70% alcohol, a small window was cut through the egg shell close to the inner shell surface where the prominent blood vessels are located using a hobby grinding wheel (Dremel Emerson Electric Co., Racine, Wis.). A filter disc saturated with bFGF (5 ng/ml) was placed on the CAM. Sterculic acid dissolved in dimethyl sulfoxide (DMSO) at various concentrations was added to the disc daily over 3-day period of incubation. The controls received the same amount of DMSO. After 72 h the disc and surrounding CAM were excised, inverted and examined under a high power dissecting microscope. The result was reported as reduction in angiogenic stimulation (vessels counted) compared to untreated controls.

[2] = tested on: ARPE19 cells; assay: CellTiter-Glo luminescent cell viability assay, 15 μM 7KCh-induced cytotoxicity; type: cell-based, human; settings: 1 μM + 15 μM 7KCh, 24 hr
Protocol: Error bar: standard deviation, n=4.
CellTiter-Glo® Luminescent Cell Viability Assay is a homogeneous method of determining the number of viable cells in culture based on quantitation of the ATP (luminescent signal) present, an indicator of metabolically active cells.
The contents in a plate were mixed for 2 min on an orbital shaker to induce cell lysis.
5) The plate was allowed to incubate at room temperature for 10 min to stabilize luminescent signal.

[3] = tested on: D407 cells; assay: 7-ketocholesterol-mediated cytotoxicity, 24-well CCK-8 viability; settings: 11 μM 7KCh, 24 hr, CCK-8
[4] = tested on: ARPE19 cells; assay: Cell Counting Kit-8 viability assay, 15 μM 7KCh-induced cytotoxicity; settings: 1 μM fatty acid + 15 μM 7KCh
Protocol: 4×10^4 cells were seeded onto wells of a 96 well plate. […] Cell viability was determined as celluar dehydrogenase activity and expressed as the percentage of compound treated cells relative to that of untreated controls. error bar: standard deviation, n=4.
The kit allows sensitive colorimetric assays for the determination of the number of viable cells in cell proliferation and cytotoxicity assays. The amount of the formazan dye generated by the activity of dehydrogenases in cells is directly proportional to the number of living cells.
1) Cells were cultivated in a 96 well cell plate (Costar#3599, Corning Incorp, Corning, N.Y.).
2) The cell suspension (40,000 cells/100 μL) were added to 100 μL culture media per well and stood for 15 min at room temperature and cultured at 37° C. in a humidified 5% CO2 atmosphere.
3) Approximately 19 hr after seeding, when the cells were fully confluent, the cells were treated with either DMSO or 1 μM fatty acid in 200 μL of serum free media and subsequently added with 15 μM 7KCh in HPBCD. Then, the plate was swirled for mixing. The cells were also treated with DMSO and HPBCD, which served as vehicle control. The final DMSO and HPBCD concentrations in the media were in the range of 0.1% and 0.0675%, respectively.
Cell viability was expressed as the percentage of compound treated cells relative to that of untreated controls. Prior to measure cell viability, the cells were imaged live by Nikon TE 2000-U inverted fluorescent microscope.

[5] = tested on: laser-induced CNV; assay: Laser-induced choroidal neovascularization (CNV) rat model; type: in vivo, Brown Norway rats; settings: day 7
Protocol: FIG. 2 depicts the results of choroidal neovascularization (CNV) suppression after a single intravitreal injection 48 hours after laser exposure. Box-and-whisker plot representations of volume of CNV lesions from rats treated with a single intravitreal injection as indicated in the x-axis. The y-axis represents neovessel lesion volume expressed in cubic microns. The number of lesions evaluated per condition (n) is depicted in the graph. Values inside of the box represent the central 50% of measurements. The horizontal line inside the box corresponds to the median values, and the vertical lines outside the boxes correspond to variances of measurements. *Highly significant difference compared with oleic acid and PBS.
FIG. 3 depicts the results of daily application of sterculic acid-containing drops to suppress laser-induced CNV. (A) Representative flat-mount projections from confocal microscope Z-series 7 days after laser. The red channel identifies vessels (Isolectin IB-4). Conditions are indicated above each projection. (B) Box-and-whisker plot representations of volume of CNV lesions from rats treated with daily drops as indicated in the x-axis. The y-axis represents neovessel lesion volume expressed in cubic microns. The number of lesions evaluated per condition (n) is depicted in the graph. Values inside of the box represent the central 50% of measurements. […]
FIG. 4 depicts the dose response of CNV suppression after daily application of sterculic acid-containing drops after laser exposure. […] The number of lesions evaluated per condition (n) is depicted in the graph. […]
Laser-induced CNV, flat mount preparations, and lesion evaluations were performed following established methods. […] Neovessels were visualized with confocal microscopy using choroid/RPE flat mounts labelled with Alexa Fluor 568-Isolectin IB4 to identify endothelial cells and neovessel volumes were quantified using VOLOCITY software. […]

[6] = tested on: Colon Cancer, SW-620; assay: NCI in vitro anti-cancer cell line screen (SRB); settings: Homo sapiens, SW-620, 48 h
Protocol: (§1) The human tumor cell lines used in the cancer screen panel were grown in RPMI 1640 medium containing 5% FBS and 2 mM L-glutamine. The cells were inoculated into 96-well microtiter plates in 100 μl at plating density ranging from 5000 to 40,000 cell/well. […] Following drug addition, the plates were incubated for an additional 48 h. The assay was terminated by the addition of cold 10% TCA. The supernatant was discarded, and the plates were washed five times with water and air dried. Sulforhodamine B (SRB) solution (100 μl) at 0.4% (w/v) in 1% acetic acid was added to each well, and plates were incubated for 10 min at room temperature. After staining, unbound dye was removed by washing five times with 1% acetic acid and the plates were air dried. Bound stain was subsequently solubilized with 10 mM trizma base, and the absorbance was read on an automated plate reader at a wavelength of 515 nm.
(§2) A sulforhodamine B (SRB) end point was used to calculate the median growth inhibition (GI50). GI50 refers to the concentration at which the drug inhibits tumor cell growth by 50%.

[7] = tested on: Melanoma, LOX-IMVI; assay: NCI in vitro anti-cancer cell line screen (SRB); settings: Homo sapiens, 48 h
Protocol: as §1, §2

With CCCCCCCCC1=C(CCCCCCCC(=O)O)C1 [sterculic acid, 8-(2-octacyclopropen-1-yl)octanoic acid] the “decrease in blood vessels induced by bFGF” value ([1]; 1 μg/ml sterculic acid in DMSO daily) was “Significant decrease”, the “decrease in blood vessels induced by bFGF” value ([1]; 10 μg/ml sterculic acid in DMSO daily) was “more than 3 fold” and the “value observed in the CAM assay” value ([1]; compared with the HUVEC IC50) was 10 µM. The “cell viability relative to the level of untreated control (ATP level)” value [2] was 80%, the “co-treatment concentration that completely offsets the 7KCh cytotoxic effect (viability at level of control)” value [3] was 5 µM and the “protective effect against cytotoxicity by 7KCh (summary of the viability assays)” value [4] was “greatest protective effect”. The CNV suppression ([5]; daily drops 0.1 mM after laser, compared to PBS) was 66%, the CNV suppression ([5]; daily drops 1 mM after laser, compared to oleic acid) was 45% and the CNV suppression ([5]; single intravitreal injection 1 mM in 1 μL, 48 hours after laser, compared to oleic acid and PBS injection) was 33%. The GI50 [6] was 1 µM and the GI50 [7] was 1 µM.
